# Reference: patent publication US6743809B2, “Indole Derivatives useful for the treatment of CNS disorders” (H. Lundbeck A/S, priority 2000, dated 2004)
# Molecular target: T1, D4 receptor (Homo sapiens, UniProt P21917)
# T1 sequence (P21917 1-419): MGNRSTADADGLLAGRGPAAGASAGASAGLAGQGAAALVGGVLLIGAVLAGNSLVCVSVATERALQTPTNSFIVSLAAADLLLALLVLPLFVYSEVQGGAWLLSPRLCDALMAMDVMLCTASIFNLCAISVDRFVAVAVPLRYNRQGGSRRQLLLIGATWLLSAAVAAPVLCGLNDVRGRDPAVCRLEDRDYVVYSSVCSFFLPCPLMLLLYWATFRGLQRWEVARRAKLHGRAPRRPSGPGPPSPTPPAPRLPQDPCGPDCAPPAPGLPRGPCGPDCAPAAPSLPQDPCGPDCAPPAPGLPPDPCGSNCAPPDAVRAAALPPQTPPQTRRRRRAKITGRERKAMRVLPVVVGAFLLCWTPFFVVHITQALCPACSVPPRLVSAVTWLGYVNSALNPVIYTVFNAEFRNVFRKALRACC
# Experiment: not given
# Details: literature report, result in words; cited from earlier work
row,SMILES,functional activity at D4 receptor
1,CC(C)Oc1cccnc1N(C)C1CCN(Cc2ccccc2)CC1 [Compound U-101958],partial D4 receptor agonists

# Molecular target: T2, human cloned dopamine D4.2 receptors (Homo sapiens, UniProt P21917, DEL265-296)
# T2 construct: expressed in transfected cells; host or cells: CHO cells
# T2 sequence (P21917 with tags, fused parts or gaps DEL265-296): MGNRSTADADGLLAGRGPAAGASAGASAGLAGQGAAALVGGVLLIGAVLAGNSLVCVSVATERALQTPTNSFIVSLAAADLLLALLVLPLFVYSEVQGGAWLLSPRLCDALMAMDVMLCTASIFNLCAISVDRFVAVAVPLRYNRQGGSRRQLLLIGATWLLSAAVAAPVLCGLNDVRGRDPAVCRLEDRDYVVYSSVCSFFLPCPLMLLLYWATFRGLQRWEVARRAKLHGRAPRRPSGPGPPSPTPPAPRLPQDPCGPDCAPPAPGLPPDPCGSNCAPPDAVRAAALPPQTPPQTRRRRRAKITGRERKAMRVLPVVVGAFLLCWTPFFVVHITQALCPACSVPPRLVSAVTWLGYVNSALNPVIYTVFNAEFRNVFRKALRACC
# Experiment: Inhibition of the binding of [3H]YM-09151-2 to human dopamine D4 receptors
# Details: 50 nM compound; [3H]YM-09151-2 0.06 nM; membranes of CHO-cells
# Procedure: Inhibition of the Binding of [^3H]YM-09151-2 to Human Dopamine D4 Receptors
# By this method, the inhibition by drugs of the binding of [^3H]YM-09151-2 (0.06 nM) to membranes of human cloned dopamine D4.2 receptors expressed in CHO-cells is determined in vitro. The method is modified from NEN Life Science Products, Inc., technical data certificate PC2533-10/96.
row,SMILES,inhibition at 0.05 µM
1,"COc1ccc(CC(=O)Nc2ccc(C)c(CCN3CCC(c4c[nH]c5cc(Cl)ccc45)CC3)c2)cc1 [Compound 3t, 3-[1-(2-{5-[2-(4-Methoxyphenyl)ethanoylamino]-2-methylphenyl}ethyl)piperidin-4-yl]-6-chloro-1H-indole]",75%
2,"Cc1ccc(NC(=O)C(C)(C)C)cc1CCN1CCC(c2c[nH]c3ccc(F)cc23)CC1 [Compound 3g, 3-(1-{2-[2-Methyl-5-(pivaloylamino)phenyl]ethyl}piperidin-4-yl)-5-fluoro-1H-indole]",86%
3,"Cc1ccc(C(=O)Nc2ccc(C)c(CCN3CCC(c4c[nH]c5c(Cl)cccc45)CC3)c2)cc1 [Compound 3af, 3-(1-{2-[2-Methyl-5-(4-methylbenzoylamino)phenyl]ethyl}piperidin-4-yl)-7-chloro-1H-indole]",90%
4,"Cc1ccc(NC(=O)c2cccs2)cc1CCN1CCC(c2c[nH]c3cc(Cl)ccc23)CC1 [Compound 3p, 3-(1-{2-[2-Methyl-5-(thiophen-2-ylmethanoylamino)phenyl]ethyl}piperidin-4-yl)-6-chloro-1H-indole]",92%
5,"CCCCCC(=O)Nc1ccc(C)c(CCN2CCC(c3c[nH]c4c(Cl)cccc34)CC2)c1 [Compound 3z, 3-(1-{2-[5-(Hexanoylamino)-2-methylphenyl]ethyl}piperidin-4-yl)-7-chloro-1H-indole]",91%
